From US20210393621A1, “COMBINATION SEROTONIN SPECIFIC REUPTAKE INHIBITOR AND SEROTONIN 1A RECEPTOR PARTIAL AGONIST FOR REDUCING L-DOPA-INDUCED DYSKINESIA” (The Research Foundation for The State University of new York, priority 2018, published 2021)
pKi: −log10 of the molar value. “Also recorded” adds a separate entry of the source. Like-named read-outs stand apart in the source and are kept apart here.

Legend:
[1] = system: L-DOPA-primed 6-OHDA-lesioned rats; assay: Experiment 3: AIMs with 5-HT1AR or 5-HT1BR antagonist before Vilazodone and L-DOPA; format: in vivo, Sprague-Dawley rats; settings: then VZD 0 or 10 mg/kg, then L-DOPA 6 mg/kg, s.c.
Protocol: In each study, the LD-primed rats received (FIG. 4A) the 5-HT1AR antagonist WAY100635 [WAY; 0 or 0.5 mg/kg, s.c.] or (FIG. 4B) the 5-HT1BR antagonist NAS [NAS; 0 or 0.3 mg/kg, s.c.]) 5 min prior to VZD (0 or 10 mg/kg, s.c.) injected 5 min prior to LD (6 mg/kg, s.c.) in a within-subjects counterbalanced design. ALO AIMs were evaluated and are shown for every 10 min for 3 h after LD administration.
All 6-OHDA-lesioned rats (n=17) were tested on the FAS prior to treatment regimens to establish baseline motor performance. Three-weeks post-surgery, all rats were primed with L-DOPA (6 mg/kg, s.c.) for 14 days.
Beginning 10 min post-treatment, a trained and blinded observer assigned a severity score (0-4) to each of the ALO AIMs based on 1 min ratings every 10 min for 3 h: 0, not present; 1, present from 1-29 s; 2, present 30-59 s; 3, present all 60 s, but interruptible by a cylinder tap; 4, present 60 s and not interruptible by a cylinder tap.

[2] = system: extracellular 5-HT, dopamine and norepinephrine; settings: cited from earlier work; for extracellular dopamine and norepinephrine: rat brain, vilazodone 1 and 10 mg/kg; for maximal increase of extracellular 5-HT: rats, acute systemic injection, measured 3 h after injection
[3] = dry and wet AMD; patients taking versus not taking L-DOPA; cited from earlier work
[4] = in vivo; cited from earlier work
[5] = system: 6-OHDA-lesioned hemi-parkinsonian rats; assay: Experiment 1: forepaw adjusting steps (FAS); format: in vivo, Sprague-Dawley rats; settings: L-DOPA-primed rats; VZD 0, 10 or 20 mg/kg + L-DOPA 6 mg/kg; 60 min post-L-DOPA
Description: (§1) Conti et al., 2014). […] Forepaw adjusting steps (FAS): The FAS test is a measure of forelimb akinesia performed according to previous protocols (Bishop et al., 2012; Chang et al., 1999). Data are presented as mean percent intact stepping where the sum of the total steps with the lesioned forepaw was divided by the total steps with the unlesioned forepaw multiplied by 100. Lower percent intact scores indicate greater forelimb akinesia. Prior to baseline, rats received 2 acclimation periods. On-treatment FAS was performed 60 min post-L-DOPA.

[6] = system: striatal and raphe tissue monoamines; assay: Experiment 1: HPLC of tissue monoamines and metabolites in striatum and dorsal raphe nucleus; settings: for 5-HIAA / 5-HT / 5-HT Turnover / DA / DA Turnover / DOPAC: Striatum, VZD(0) + LD(6) mg/kg, 60 min post-LD
Protocol: Three-weeks post-lesion, animals were divided into 2 equally disabled groups, measured by forepaw adjusting steps (FAS, see below). One group (n=8) began receiving 14 days of daily vehicle (0.9% NaCl+0.1% ascorbic acid) and the other (n=22) received L-DOPA methyl ester (6 mg/kg, s.c.; Sigma)+DL-serine 2-(2,3,4-trihydroxybenzyl) hydrazine hydrochloride (benserazide; 15 mg/kg, s.c.; Sigma), hereafter L-DOPA, dissolved in vehicle at a volume of 1 mg/kg. Treatment persisted for 14 days to produce stable AIMs expression (Putterman et al., 2007; Conti et al., 2014). Thereafter, L-DOPA-treated animals with Axial, Limb, and Orolingual (ALO) AIMs (see description below, FIG. 1A)<30 were excluded from the study and the remaining L-DOPA-treated animals were divided into 3 equally dyskinetic groups. […] Daily injections continued over 23 days, with behavior assayed on Days 15, 22, 29, and 36. On Day 37, animals were killed 60 min post-treatment Left and right dorsal striata and DRN were dissected and flash frozen for HPLC analyses.
High-performance liquid chromatography (HPLC): HPLC, a method for semi-automated catecholamine analysis with coulometric detection, was performed according to prior protocols (Bishop et al., 2009) to determine the tissue levels of monoamines, their metabolites, and monoamine turnover in the striatum and DRN. The limit of detection for DOPAC, DA, 5-hydroxyindoleacetic acid (5-HIAA) and 5-HT was 10^−10 M. Final oxidation current values were plotted on a standard curve from 10^−6 M to 10^−9 M and expressed as pg of monoamine or metabolite per mg of tissue unless otherwise specified.
On the final treatment day, animals were sacrificed 60 min post-LD treatment and left and right striata and dorsal raphe nucleus (DRN) were collected for high performance liquid chromatography (HPLC) analysis. Values (means±standard mean error) are expressed as picograms of monoamine or metabolite per milligram wet tissue weight. Turnover estimates were determined by dividing a subjects metabolite value by its corresponding monoamine. Differences were assessed by a 2×4 (lesion×treatment) ANOVA, followed by Fisher's LSD post-hocs when appropriate. *p<0.01 vs lesion vs intact; +p<0.05 vs all; ^p<0.05 vs VZD (0)+LD (0); #p<0.05 vs VZD (0)+LD (6)

[7] = system: striatal c-Fos, PPD, PPE, PPT and 5-HT1AR mRNA; assay: Experiment 2: real-time RT-PCR of striatal gene expression
[8] = system: 6-OHDA-lesioned hemi-parkinsonian rats; assay: Experiment 2: forepaw adjusting steps (FAS); format: in vivo, Sprague-Dawley rats; settings: L-DOPA-naive rats; VZD 0, 10 or 20 mg/kg + L-DOPA 6 mg/kg; Days 1, 8, 15, 22
Protocol: as §1, with “[…].). All VZD injections were administered 5 min prior to LD. […] AIMs values expressed are the median sum of axial, limb, and orolingual (ALO) behaviors. […] Values are expressed as medians [±median absolute difference (M.A.D.)].” for “Conti et al., 2014).”

[9] = system: DRN 5-HT neurons; assay: Example 3: in vivo single-unit recordings of DRN 5-HT neurons; set-up: species or system rats
[10] = system: unilateral 6-OHDA-lesioned rats; assay: Example 2: L-DOPA-induced dyskinesias (LIDs) scoring; format: in vivo, Sprague-Dawley rats
Protocol: 6-OHDA-induced dopaminergic lesions: Adult male Sprague-Dawley rats were randomly assigned to groups receiving either a 6-OHDA or sham lesion. […] [[…] 2019]. […] Rats were treated for 5 consecutive days/week (Mon-Fri), for 2 weeks. […] All rats were evaluated three times per week for the presence of L-DOPA-induced dyskinesias (LIDs) (Wed-Fri) and once for the stepping test (Tue). […] Scores were given over 1 min epochs and classified as axial, limb, orolingual and locomotive. […] Arrows=inhibitory input; dashed arrows=compromised function. The severity of each LID was scored using a standard scale. Each dyskinetic behavior was given an intensity and frequency score, which were then multiplied. The average sum of the products of each LID was determined in each animal.

[11] = biological target: T1, 5-HT1A receptor (Homo sapiens, UniProt P08908); set-up: expressed in transfected cells; host or cells: SF9 cells; settings: 5-HT1A receptor expressed in SF9 cells; cited from earlier work
T1 sequence (P08908 1-422): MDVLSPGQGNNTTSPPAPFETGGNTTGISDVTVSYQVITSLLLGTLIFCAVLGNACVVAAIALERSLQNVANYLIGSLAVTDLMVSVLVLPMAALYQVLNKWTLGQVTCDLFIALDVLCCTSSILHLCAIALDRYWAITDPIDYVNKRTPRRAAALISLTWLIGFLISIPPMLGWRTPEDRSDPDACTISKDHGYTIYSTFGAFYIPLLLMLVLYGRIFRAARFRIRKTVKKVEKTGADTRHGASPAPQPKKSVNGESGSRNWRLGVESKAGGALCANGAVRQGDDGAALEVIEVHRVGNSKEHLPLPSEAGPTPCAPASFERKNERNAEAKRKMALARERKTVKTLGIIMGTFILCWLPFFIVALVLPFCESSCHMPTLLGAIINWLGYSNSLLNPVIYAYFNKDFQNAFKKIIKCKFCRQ

[12] = system: unilateral 6-OHDA-lesioned rats; assay: Example 2: stepping test; format: in vivo, Sprague-Dawley rats; settings: vilazodone 10 mg/kg or escitalopram 12.5 mg/kg + L-DOPA 5 mg/kg; 60 minutes post L-DOPA
Protocol: 6-OHDA-induced dopaminergic lesions: Adult male Sprague-Dawley rats were randomly assigned to groups receiving either a 6-OHDA or sham lesion. All rats received desipramine (10 mg/kg i.p.) 30 min prior to surgery to prevent the lesioning of norepinephrine neurons by 6-OHDA. A single injection of 6-OHDA (8 μg of 6-OHDA free base in 4 μl of 0.1% ascorbic acid) was delivered into the right medial forebrain bundle (coordinates taken from bregma: −4.3 mm AP, 1.6 mm ML, −8.3 mm DV). The same experimental treatment was performed for the sham-operated rats using vehicle (4 μl of 0.1% ascorbic acid). A standard stepping test was used to evaluate the effectiveness of the 6-OHDA lesion.
Rats were treated for 5 consecutive days/week (Mon-Fri), for 2 weeks. On the second day of each week, stepping tests were performed prior to drug administration, and 60 minutes post L-DOPA treatment.

[13] = biological target: 5HT2A; settings: rat cerebral cortex; read-out: affinity Ki; cited from earlier work
[14] = lesioned striata, VZD 0, 10 or 20 mg/kg + L-DOPA 6 mg/kg daily, day 23, 60 min post-injection

For C1=C(CN2CCOCC2)COc2c1cccc2OC[C@H]1CNCCO1.CS(=O)(=O)O [NAS-181, (R)-(+)-2-(3-morpholinomethyl-2H-chromen-8-yl) oxymethyl-morpholine methane-sulfonate], the “ALO AIMs, 5-HT1BR study” value ([1]; NAS-181 0 or 3.0 mg/kg) was “did not significantly alter AIMs or their reduction by Vilazodone”.
For O=C1CC2(CCCC2)CC(=O)N1CCCCN1CCN(c2ncccn2)CC1 [buspirone], the “extracellular dopamine and norepinephrine” value [2] is listed as “caused an increase”.
In the case of N[C@@H](Cc1ccc(O)c(O)c1)C(=O)O [L-DOPA, L-3,4-dihydroxyphenylalanine], the “delay of onset of AMD” value [3] is listed as “around 8 years”, the “fraction that crosses the blood-brain barrier” value [4] is listed as 5-10% and the “FAS motor performance versus baseline” value [5] is listed as “significant improvements on motor performance over baseline”. For the same molecule, the “DRN levels of DA, DOPAC and DA Turnover” value ([6]; L-DOPA 6 mg/kg) was “significantly increased DRN levels of DA, DOPAC and DA Turnover”, the 5-HIAA ([6]; Intact) was 650 ± 68.9 picograms per milligram wet ti and the 5-HT ([6]; Intact) was 241 ± 29.6^ picograms per milligram wet ti. The “5-HT Turnover” value ([6]; Intact) was 2.77 ± 0.15+, the DA ([6]; Intact) was 4561 ± 210 picograms per milligram wet ti and the “DA Turnover” value ([6]; Intact) was 0.89 ± 0.04. The DOPAC ([6]; Intact) was 4051 ± 224 picograms per milligram wet ti, the 5-HIAA ([6]; Lesion) was 907 ± 82.5 picograms per milligram wet ti and the 5-HT ([6]; Lesion) was 264 ± 39.6 picograms per milligram wet ti. For the same molecule, the “5-HT Turnover” value ([6]; Lesion) was 3.93 ± 0.63, the DA ([6]; Lesion) was 83.3 ± 7.99 picograms per milligram wet ti and the “DA Turnover” value ([6]; Lesion) was 1.42 ± 0.23. The DOPAC ([6]; Lesion) was 127 ± 30.7 picograms per milligram wet ti, the “striatal PPT mRNA” value ([7]; FIG. 6B) was “did not increase striatal PPT” and the “striatal PPE mRNA” value ([7]; lesioned striata, L-DOPA 6 mg/kg, Vilazodone 20 mg/kg) was “significantly increased PPE”. For the same molecule, the “striatal PPD mRNA” value [7, 14] was “significantly increased PPD”, the “striatal c-Fos mRNA” value [7, 14] was “potentiated c-Fos” and the “FAS stepping relative to baseline” value [8] was “significant increases in motor ability on each test day”.
With COc1ccccc1N1CCN(CCN(C(=O)C2CCCCC2)c2ccccn2)CC1.O=C(O)/C=C\C(=O)O [WAY100635, N-[2-[4(2-Methoxyphenyl)-1-piperazinyl]ethyl]-N-2-pyridinylcyclohexanecarboxamide maleate salt] the “spontaneous firing of DRN 5-HT neurons” value ([9]; i.v., 8-OH-DPAT then WAY-100635 100 μg/kg, BFP and D2Rs expressing rats) was “return to baseline firing was observed”, the “summed ALO AIMs, 5-HT1AR study” value ([1]; WAY100635 0 or 0.5 mg/kg) was “partially reversed the anti-dyskinetic efficacy of Vilazodone” and the “effect of 5-HT1A blockade on vilazodone's benefit on LIDs” value ([10]; WAY100635 with vilazodone + L-DOPA) was “reverses the beneficial effects of vilazodone on LIDs”.
For Br.CCCN(CCC)C1CCc2cccc(O)c2C1 (centres unmarked) [8-OH-DPAT, 8-hydroxy-2-(dipropylamino) tetralin hydrobromide], the “spontaneous firing of DRN 5-HT neurons” value ([9]; rat, in vivo, iv) is listed as “suppressed the spontaneous firing of a DRN neuron”, the “increase of [35S]GTPγS binding compared to vehicle” value [11] is listed as “eightfold” and the “extracellular dopamine and norepinephrine” value [2] is listed as “caused an increase”.
In the case of CNCCC(Oc1ccc(C(F)(F)F)cc1)c1ccccc1 (centres unmarked) [fluoxetine], the “maximal increase of extracellular 5-HT” value ([2]; frontal cortex) is given as 165% and the “maximal increase of extracellular 5-HT” value ([2]; ventral hippocampus) is given as 274%.
For c1ccc2c(c1)OC[C@H](CNCCCOc1ccc3c(c1)OCO3)O2 [MKC-242], the “extracellular dopamine and norepinephrine” value [2] is listed as “caused an increase”.
With CN(C)CCC[C@@]1(c2ccc(F)cc2)OCc2cc(C#N)ccc21 [Escitalopram] the “forelimb akinesia and L-DOPA prokinetic / therapeutic efficacy (stepping test)” value [12] was “affected L-DOPA therapeutic efficacy; also recorded: interfered with the therapeutic efficacy of L-DOPA” and the “LIDs score / severity” value ([10]; pretreatment with vilazodone 10 mg/kg or escitalopram 12.5 mg/kg before L-DOPA 5 mg/kg, 2 weeks) was “significantly reduced LIDs severity; also recorded: significant reduction in total LIDs score”.
For O=S1(=O)N(CCN2CC=C(c3c[nH]c4cc(F)ccc34)CC2)c2cccc3c2N1CCC3 [LY367265], the pKi [13] is listed as 6.31.
